Article PMC6630718, “Discovery of Novel UV-Filters with Favorable Safety Profiles in the 5-Arylideneimidazolidine-2,4-dione Derivatives Group” (Molecules, 2019)
Read-outs that look alike come from different tables or passages of the source.

Key:
[1] = Ultraviolet spectroscopy in methanol solutions; format: physicochemical; details: for Absorption Range: scan range 290–400 nm
Description: Spectra with a scan range of 290–400 nm were recorded in 50 or 25 μM methanol solutions, in 1 cm path length, 1.5 mL quartz cuvettes on a U-2800 double beam spectrophotometer (Hitachi, Tokyo, Japan) controlled by UV Solution version 2.2 software. The molar extinction coefficient at maximum absorption (εmax) of tested compounds was determined in methanol as the slope of the linear regression of absorbance vs. concentration of tested compound (from 10 to 50 μM or 2.5 to 30 μM).

[2] = Photostability in macrogol formulations on PMMA plates (solar light simulator); format: physicochemical; details: for % of Initial AUC / % of Initial SPFin vitro / % of Initial UVA PF: after 1 h irradiation at 500 W/m^2, formulation F1; for new photoproduct (besides photoisomer), relative peak area: post-irradiation chromatogram; for decrease of AUC after irradiation: macrogol formulation F1; for percentage of photoproducts content: post-irradiation chromatograms
Description: After irradiation of thin layer of formulations applied on PMMA plates, their photoprotective parameters were determined and compared with the pre-irradiation results. The study gives an overview on functional photostability of the tested compounds. It is an important test, because the photostability of some compounds in low concentrated solutions may meaningfully differ from results obtained for higher concentrations used in sunscreen products. […] In the present study both UVB and UVA-absorbers were tested, so the changes in SPFin vitro, UVA PF and AUC after irradiation are taken into account as a measure of photostability.
(§1) The photostability evaluation of compounds was performed both in methanol solutions and in macrogol formulations. Irradiation of samples according to previous studies was conducted for 1 h at 500 W/m^2 (cumulative dose of ultraviolet radiation 218 kJ/m^2) with solar light simulator (Suntest CPS+, Atlas, Linsengericht, Germany) equipped with an optical filter cutting off wavelengths shorter than 290 nm and IR-block filter to neutralize thermal effects. The UV absorption spectrum of the samples were analysed post-irradiation and compared with pre-irradiation results. UPLC-MS/MS analyses were also performed.
(§2) Methanol solutions were tested at concentration 25 or 50 µM in quartz cuvettes with the PTFE stopper to prevent evaporation or leaking of the solvent. Macrogol formulations (2% w/w) were tested on PMMA plates (1.3 mg/cm^2). After post-irradiation measure of UV absorption, exposed and unexposed plates were washed with 5 mL of methanol, then mixtures were filtered and analysed by UPLC-MS/MS. All analyses were performed in duplicates.

[3] = Photostability in methanol solutions (solar light simulator); format: physicochemical; parameters: λmax pre-irradiation: unit not given beside the values; details: methanol solution; for % of initial AUC post-irradiation / λmax post-irradiation: 1h irradiation at 500 W/m2
Description: as §1, §2

[4] = In vitro photoprotection study of 2% (w/w) macrogol formulations on PMMA plates; details: for UVA PF / UVA/UVB Ratio / λc (critical wavelength): 2% (w/w) macrogol formulation F1 (Triacetin 4.8%); for SPFin vitro: 2% (w/w) macrogol formulation F1 (Tween 20, PEG-400, PEG-1500, Triacetin 4.8%)
Source text: The composition of formulations and concentration of tested compounds were based on their limited solubility. N-monosubstituted compounds 2a–2e were insoluble at desirable concentrations in the typical solvents used in cosmetic formulations such as alcohols, triacetin, surfactants, and co-surfactants. To dissolve compounds 2a and 2b before incorporation to the formulation DMSO: Tween 20 (1:9 w/w) was used, for less soluble 2c–2e it was necessary to use DMSO alone as solvent. […] Thus the detailed composition of the formulations is as follows: F1–Tween 20 43.2%, PEG-400 25%, PEG-1500 25%, Triacetin 4.8%, tested compound 2%; F2–Tween 20 43.2%, PEG-400 25%, PEG-1500 25%, DMSO 4.8%, tested compound 2%; F3–PEG-400 25%, PEG-1500 25%, DMSO 48%, tested compound 2%. Considering the disadvantages of currently reported macrogol formulations and the low concentration achieved for the tested compounds (2%), we plan to work on cosmetic emulsions containing the most promising derivatives at higher concentrations as well as required excipients including preservatives, antioxidants, etc. This research will be carried out in the near future.
Tested compounds and commercial UV filters as reference standards were incorporated to a neutral macrogel formulation in the concentration of 2%. Prior to the incorporation, compounds 3a–3e and 4f–4h and reference UV-filters were dissolved in a triacetin:Tween 20 (1:9) solvent system. For compounds 2a–2e it was necessary to use DMSO. The final composition of the macrogol formulations is presented in the photoprotective activity section.
In vitro photoprotection study was performed according to EN ISO 24443:2012 [71] with slight modifications. Formulation with tested compound (32.5 mg) was applied on a polymethylmethacrylate plate (PMMA) with the application area 25 cm^2 and 5 µm roughness value to simulate the skin surface (Schonberg GmbH, Hamburg, Germany). As a reference a PMMA plate treated with approximately 15 µL of glycerin was used. Measurements were carried out by reflectance spectrophotometry with SPF-290AS Analyser (Solar Light Company, Glenside, PA, USA) equipped with integrating sphere controlled by WinSPF version X.X. software. For each sample two plates were prepared, absorbance measures were performed on 6 different positions of the plate from 290 to 400 nm with 1 nm steps. The results were expressed as an average of data from 12 scans.

[5] = In vitro stability in mouse liver microsomes; format: in vitro ADME; details: mouse, mouse liver microsomes
Description: Mouse liver microsomes (MLMs) were used to investigate the phase I metabolism of selected compounds (2c, 2d, 3b, 4g, 5a) and the reference substance BP-2. Samples composed of test compound (20 µM), MLMs (0.8 mg/mL) and potassium phosphate buffer (100 mM, pH 7.4) were preincubated prior to addition of NADPH-regenerating system. NADPH-regenerating system contained NADP, glucose-6-phosphate, glucose-6-phosphate dehydrogenase and potassium phosphate buffer (100 mM, pH 7.4). Control incubations were performed in the absence of the NADPH-regenerating system and in case of esters (2c, 2d, 3b and 4g) without the mouse liver microsomes solution to determine spontaneous hydrolysis. Incubations were conducted at 37 °C for at least 15 min up to 60 min. The reactions were stopped by the addition of 250 μL ice-cold methanol containing internal standard PTX (20 μM). The mixture was then centrifuged. Supernatant analysis was performed using UPLC/MS (Waters Corporation). The assays were repeated two times. The in vitro half times (t1/2) for test compounds were determined from the slope of the linear regression of ln % parent compound remaining versus incubation time. The calculated t1/2 was incorporated into the following equation to obtain intrinsic clearance: (Clint) = (volume of incubation [µL]/ protein in the incubation [mg]) × 0.693 / t1/2 [74].

| SMILES | εmax [1] [M⁻¹ cm⁻¹] | λmax [1] [nm] | Absorption Range [1] | % of Initial AUC [2] [%] | % of Initial SPFin vitro [2] [%] | % of Initial UVA PF [2] [%] | λmax pre-irradiation [3] | % of initial AUC post-irradiation [3] [%] | λmax post-irradiation [3] | melting point [°C] | UVA PF [4] | UVA/UVB Ratio [4] | λc (critical wavelength) [4] [nm] | SPFin vitro [4] | also measured |
| --- | --- | --- | --- | --- | --- | --- | --- | --- | --- | --- | --- | --- | --- | --- | --- |
| CCOC(=O)CN1C(=O)/C(=C/c2ccccc2)N(CC(=O)OCC)C1=O [Compound 3a, Diethyl 2,2′-((Z)-4-benzylidene-2,5-dioxoimidazolidine-1,3-diyl)diacetate] | 13980 | 295 | 290–335 nm | 88.19 | 83.31 | 103.50 | 295 | 122.34 | 301 | 47 to 49 | 1.29 ± 0.09 | 0.16 ± 0.02 | 331 | 2.97 ± 0.45 | hypsochromic shift of λmax compared to N-monosubstituted derivatives [1]: 21 nm |
| CCOC(=O)CN1C(=O)/C(=C/c2ccc(OCC)cc2)N(CC(=O)OCC)C1=O [Compound 3c, Diethyl 2,2′-((Z)-4-(4-ethoxybenzylidene)-2,5-dioxoimidazolidine-1,3-diyl)diacetate] | 17010 | 321 | 290–367 nm | 85.29 | 88.73 | 86.59 | 321 | 119.42 | 329 | 44 to 46 | 2.46 ± 0.01 | 1.05 ± 0.03 | 370 | 2.49 ± 0.08 | new photoproduct (besides photoisomer), relative peak area ([2]; macrogol formulation): 2.8% |
| CCOC(=O)CN1C(=O)/C(=C/c2ccc(OC)cc2OC)N(CC(=O)OCC)C1=O [Compound 3d, Diethyl 2,2′-((Z)-4-(2,4-dimethoxybenzylidene)-2,5-dioxoimidazolidine-1,3-diyl)diacetate] | 17310 | 333 | 290–374 nm | 94.01 | 89.92 | 97.66 | 333 | 111.55 | 342 | 88 to 90 | 2.35 ± 0.03 | 1.63 ± 0.01 | 383 | 1.84 ± 0.02 | new photoproduct (besides photoisomer), relative peak area ([2]; macrogol formulation): no additional peaks besides the photoisomer |

More lines, main results first:

| εmax [1] [M⁻¹ cm⁻¹] | λmax [1] [nm] | Absorption Range [1] | % of Initial AUC [2] [%] | % of Initial SPFin vitro [2] [%] | % of Initial UVA PF [2] [%] | λmax pre-irradiation [3] | % of initial AUC post-irradiation [3] [%] | λmax post-irradiation [3] | melting point [°C] | SMILES | UVA PF [4] | UVA/UVB Ratio [4] | λc (critical wavelength) [4] [nm] | SPFin vitro [4] | also measured |
| --- | --- | --- | --- | --- | --- | --- | --- | --- | --- | --- | --- | --- | --- | --- | --- |
| 14200 | 329 | 290–380 nm | 79.59 | 81.28 | 87.10 | 329 | 129.32 | 340 | 80 to 82 | CCOC(=O)CN1C(=O)/C(=C/c2ccc(OC)c(OC)c2)N(CC(=O)OCC)C1=O [Compound 3e, Diethyl 2,2′-((Z)-4-(3,4-dimethoxybenzylidene)-2,5-dioxoimidazolidine-1,3-diyl)diacetate] | 2.17 ± 0.11 | 1.43 ± 0.02 | 382 | 1.87 ± 0.08 |  |
| 41477 | 354 | 295–389 nm | 27.92 | 62.24 | 25.98 | 354 | 59.12 | 354 | 99 to 100 | CCOC(=O)CN1C(=O)/C(=C/C=C/c2ccccc2)N(CC(=O)OCC)C1=O [Compound 4f, Diethyl 2,2′-((Z)-2,4-dioxo-5-((E)-3-phenylallylidene)imidazolidyne-1,3-diyl)diacetate] | 8.43 ± 1.35 | 2.58 ± 0.06 | 381 | 2.51 ± 0.17 | photostability (in words) ([2]; macrogol formulation): unsatisfactory; decrease of AUC after irradiation [2]: 72.1%; percentage of photoproducts content ([2]; macrogol formulation): 22.9%; decrease of AUC after irradiation [3]: 40.9% |
| 34987 | 370 | 290–400 nm | 69.19 | 82.22 | 62.38 | 370 | 98.55 | 370 | 134 to 135 | CCOC(=O)CN1C(=O)/C(=C/C=C/c2ccccc2OC)N(CC(=O)OCC)C1=O [Compound 4h, Diethyl 2,2′-((Z)-4-((E)-3-(2-methoxyphenyl)allylidene)-2,5-dioxoimidazolidine-1,3-diyl)diacetate] | 4.28 ± 0.02 | 2.58 ± 0.01 | 389 | 1.94 ± 0.04 | decrease of AUC after irradiation [2]: 30.8%; percentage of photoproducts content ([2]; macrogol formulation): 11.0%; decrease of AUC after irradiation [3]: 1.5% |
| 27310 | 316 | 290–346 nm |  |  |  |  |  |  | 215 to 217 | O=C(O)CN1C(=O)N/C(=C\c2ccccc2)C1=O [Compound 5a, (Z)-2-(4-Benzylidene-2,5-dioxoimidazolidin-1-yl)acetic acid] |  |  |  |  | half-life at 20 µM ([5]; pH 7.4, mouse liver microsomes 0.8 mg/mL, 20 µM compound, NADPH-regenerating system, 37 °C, read-out: t ½): 23.1 h; microsomal CLint at 20 µM ([5]; pH 7.4, mouse liver microsomes, calculated from t1/2): < 1 µL/min/mg; half-life at 20 µM ([5]; pH 7.4, mouse liver microsomes, read-out: t1/2): > 23 h |
